Assay results: ChEMBL document CHEMBL2439954, “3D-QSAR using pharmacophore-based alignment and virtual screening for discovery of novel MCF-7 cell line inhibitors” (Eur J Med Chem, 2013)

Test system: MCF7
Assay: Cytotoxicity against human MCF7 cells after 48 hrs by MTT assay
Assay type: functional, cell-based
Conditions: MCF7, 48 h

Structure (SMILES)	IC50 [µM]
Cc1ccc(/C=N\NC(=O)Cn2c(-c3nonc3N)nc3ccccc32)cc1	172
CCOc1cccc(C(=O)C2=C(O)C(=O)N(Cc3ccco3)C2c2cccnc2)c1 (stereo not given)	181
CCc1cccc(CC)c1N(COC)C(=O)Cn1c(CO)nc2ccccc21	123
Nc1ccc(Oc2ccc3nc(-c4ccccc4)c(-c4ccc(N)cc4)nc3c2)cc1	65.4
COc1cc(C2C(C(=O)c3ccc(F)cc3)=C(O)C(=O)N2Cc2cccnc2)ccc1O (stereo not given)	185
COc1ccc(-c2cc(C(F)(F)F)n3ncc(C(=O)NC(C)c4ccccc4)c3n2)cc1OC (stereo not given)	30.2
Cc1cc(C(=O)C2=C(O)C(=O)N(CCN3CCOCC3)C2c2ccncc2)ccc1OCC(C)C (stereo not given)	151
COc1cccc(NC(=O)COc2ccc(C3C(C#N)=C(N)Oc4[nH]nc(C)c43)cc2)c1 (stereo not given)	38.5
Nc1ccc(-c2nc3cc(N)ccc3n2CCO)cc1	> 200
CC(C)CC(C(=O)Nc1cccc(O)c1)N1C(=O)c2ccccc2C1=O (stereo not given)	148
COc1ccc(-n2c(SCC(=O)Nc3cccc(C(C)=O)c3)nnc2-c2ccccc2OC)cc1	> 200
C[C@]12CC[C@H](O)CC1=CC[C@@H]1[C@@H]2CC[C@]2(C)C(=O)CC[C@@H]12 [PRASTERONE]	> 200
Cc1ccc(C)c(C(=O)C2=C(O)C(=O)N(Cc3ccco3)C2c2cccnc2)c1 (stereo not given)	> 200
CC/C(=C(\c1ccccc1)c1ccc(OCCN(C)C)cc1)c1ccccc1 [TAMOXIFEN]	15.2
COc1ccc(COC(=O)/C(=C(\C)NC(N)=O)C(C)c2ccccc2OCc2ccccc2)cc1 (stereo not given)	108
